The values below come from patent publication US20170079296A1, “Methods For Treating Plants Or Fruits” (The United States of America, as represented by the …, priority 2015, published 2017).

Test [1] relates to bananas. Kind of test: Texture (tensile property, firmness) of bananas after ripening treatment. Type of test: in vivo, banana. On the procedure: (§1) Each measurement was repeated at least three times. […] Five replicates were measured for each measurement.
(§2) Tensile Property. […] At least five replicates were measured for each treatment.

The subject of a further test is climacteric produce. Kind of test: Controlled ripening of climacteric produce. Type of test: in vivo.
The subject of test [2] is avocados. Particulars: after 48 hours of treatment. As to the method:
as §1, §2

In test [3] the test system is bananas. Kind of test: Color change of bananas after ethylene mediated ripening treatment (colorimeter). Type of test: in vivo. Particulars: banana surface color after ripening treatment (48 hours). As to the method: (§3) The color change of the produce was measured using a Minolta colorimeter (Minolta Co. Ltd, Japan). The L values reported were means of 12 readings; three readings from each side of each of the bananas, and two readings per avocado. For bananas, ‘a’ was an indicator of green, and higher ‘a’ value meant less green; ‘b’ was an indicator of yellow, and higher ‘b’ value meant more yellow. For avocados, the degree of browning was expressed by the percent decrease in the L value calculated by subtracting the L value of treated and control samples measured at evaluation times from the time zero L value obtained from untreated samples measured immediately after cutting, divided by the time zero value and multiplied by 100.

For test [4], the system named is avocados. Kind of test: Color change of avocados after ethylene mediated ripening treatment (colorimeter). Type of test: in vivo, avocado. On the procedure: as §3
The mark [5] stands for this setting: avocado surface color after ripening treatment (48 hours).

Excerpt for climacteric produce: Avacados and grocery bananas (pretreated at warehouse or retail facility) were acquired directly from local supermarket, and ‘non-gassed’ bananas were directly purchased from local produce distribution center (Coastal Sunbelt, Jessup, Md.).

As to `C=C` [ethylene], the “Young's modulus (initial slope): change of elasticity of bananas” value in the test with bananas [1] was “less elastic and more viscous”. The “ripening state of samples” value in the test with climacteric produce (after 48 hours of treatment) was “fully ripened”. For the same molecule, the “total ripening time required” value with climacteric produce (versus no ethylene treatment) was “reduced by a half”. Also, the avocado flesh texture entry in the test with avocados [2] is “softened significantly”. In the test on bananas [3], this molecule came in with an L of 66.74 ± 0.77, a c of 45.80 ± 4.64 and a h of 92.08 ± 0.83. In addition, in the test with bananas [3] (higher a = less green), the a is given as −1.66 ± 0.57. This molecule also registered a b with bananas [3] (higher b = more yellow) of 45.77 ± 4.60. Moreover, the “skin color of avocado” value in the test on avocados [4] (after treatment, in words) is given as “darkened slightly”. In the test on avocados [4] (setting [5]), this molecule had an L of 30.17 ± 0.23, an a of −1.31 ± 3.01, a b of 13.54 ± 1.66 and a c of 13.60 ± 3.44. Besides, the h in the test on avocados [4] (setting [5]) was determined as 95.53 ± 0.29.
